Measurements taken from patent publication US12427134B2, “Methods of reducing the risk of cardiovascular events in a subject with atrial fibrillation and/or atrial flutter” (priority 2019, dated 2025).

Tested on: hypertriglyceridemic patients with cardiovascular disease or at high risk for cardiovascular disease
Experiment: REDUCE-IT: clinical laboratory evaluation (hematology, liver function tests, clinical chemistry, drug-induced liver injury)
Type: in vivo, human
Procedure: Clinical Laboratory Procedures and Evaluations: All clinical laboratory determinations for screening and safety were performed by a certified clinical laboratory under the supervision of the Sponsor or its designee. Whenever possible and appropriate, samples for the clinical laboratory procedures were collected after fasting for at least 10 hours. For the purposes of this study, fasting was defined as nothing by mouth except water (and any essential medications). The investigator reviewed and signed all laboratory test reports. At screening, patients who had laboratory values that are outside the exclusionary limits specified in the exclusion criteria were not enrolled in the study (patients would have been considered for the study if values were classified as not clinically significant by the investigator). After randomization, the investigator was notified if laboratory values were outside of their normal range. In this case, the investigator was required to conduct clinically appropriate follow-up procedures.
Safety Laboratory Tests: The safety parameters were analyzed by a certified clinical laboratory at screening (Visit 1 or Visit 1.1), Randomization visit (Visit 2; Day 0), Visit 3 (Day 120; −4 Months) and all other follow-up visits including the Last Visit. The safety laboratory tests included: • Hematology with complete blood count (CBC), including RBC, hemoglobin (Hgb), hematocrit (Hct), white cell blood count (WBC), white cell differential, and platelet count; and • Biochemistry panel including total protein, albumin, alkaline phosphatase, alanine am inotransferase (ALT/SGPT), aspartate am inotransferase (AST/SGOT), total bilirubin, glucose, calcium, electrolytes (sodium, potassium, chloride), blood urea nitrogen (BUN), serum creatinine, uric acid, creatine kinase, and HbA1c.
Each laboratory result was classified as low (L), normal (N), and high (H) at each visit according to the laboratory-supplied normal range. The shift from baseline was presented for each post-baseline visit and overall post-baseline visits. If multiple measurements for a test parameter were available for a post-baseline patient-visit, the most extreme value was included in the shift table. For shift from baseline to overall post-baseline visits, values from all visits (including unscheduled measurements) were included. The chemistry shift table included fasting lipid parameters. The continuous lipid values were presented as part of the efficacy analysis.
A treatment-emergent PCS high value at any time was defined as a change from a value less than or equal to the upper reference limit at baseline to a PCS high value at any post-baseline measurement. A treatment-emergent PCS low value at any time was defined as a change from a value greater than or equal to the lower reference limit at baseline to a PCS low value at any post-baseline measurement. Number (%) of patients with any post-baseline PCS laboratory values was summarized by treatment group. A listing of patients with PCS laboratory values at any time, i.e., baseline or at any post-baseline visit, were included.
DILI cases were investigated through the following analyses: • A graph of distribution of peak values of alanine aminotransferase (ALT) versus peak values of total bilirubin (TBL) during the treatment period was prepared, using a logarithmic scale. In the graph, for each patient, the peak TBL times the Upper Limit of Normal (ULN) were plotted against the peak ALT times the ULN, where the peak TBL and peak ALT may or may not have happened on the same day of liver testing. The graph was divided into 4 quadrants with a vertical line corresponding to 3×ULN for ALT and a horizontal line corresponding to 2×ULN for TBL. […]

[1] = Baseline (Visit 2), Safety population
[2] = Visit 9 (n = 8), Safety population
[3] = Visit 9 (only 8 patients had data)
[4] = any post-baseline visit, 3975 patients with data
[5] = any post-baseline visit, 3977 patients with data

## CC/C=C\C/C=C\C/C=C\C/C=C\C/C=C\CCCC(=O)OCC [AMR101, eicosapentaenoic acid ethyl ester]
[1]
  ALT, mean baseline value: 27.72 U/L
  AST, mean baseline value: 24.47 U/L
  Hemoglobin, mean baseline value: 141.16 g/L
  Platelet Count, mean baseline value: 2.4301e+11 L⁻¹
Last Visit, Safety population
  ALT, mean change from baseline: −2.33 U/L
  AST, mean change from baseline: −1.25 U/L
  Hemoglobin, mean change from baseline: -1.12 g/L
  Platelet Count, mean change from baseline: -5.52e+09 L⁻¹
Safety population
  Increase of 3×ULN in ALT or AST and increase of 2×ULN in total bilirubin, patients: one patient
  Increase of 3×ULN in ALT or AST, increase of 2×ULN in total bilirubin, and alkaline phosphatase ≤2×ULN, patients: one patient
  Individual study drug-related hematology and clinical chemistry TEAEs, incidence: < 0.2%
  Patients with basophils PCS high >1%: 47.0%
  Patients with treatment-emergent total bilirubin >ULN: 7.5%
  TEAE blood glucose increased, patients: 2.6%
  TEAE hyperglycemia, patients: 1.7%
  TEAE hypoglycemia, patients: 1.5%
Visit 3, Safety population
  ALT, mean change from baseline: 0.39 U/L
  AST, mean change from baseline: 0.24 U/L
  Hemoglobin, mean change from baseline: 0.17 g/L
  Platelet Count, mean change from baseline: -2.36e+09 L⁻¹
Visit 4, Safety population
  ALT, mean change from baseline: −0.28 U/L
  AST, mean change from baseline: 0.03 U/L
  Hemoglobin, mean change from baseline: 0.85 g/L
  Platelet Count, mean change from baseline: -4.85e+09 L⁻¹
Visit 5, Safety population
  ALT, mean change from baseline: −1.27 U/L
  AST, mean change from baseline: −0.83 U/L
  Hemoglobin, mean change from baseline: 1.39 g/L
  Platelet Count, mean change from baseline: -1.05e+10 L⁻¹
Visit 6, Safety population
  ALT, mean change from baseline: −1.66 U/L
  AST, mean change from baseline: −1.10 U/L
  Hemoglobin, mean change from baseline: 0.92 g/L
  Platelet Count, mean change from baseline: -1.368e+10 L⁻¹
Visit 7, Safety population
  ALT, mean change from baseline: −2.80 U/L
  AST, mean change from baseline: −1.56 U/L
  Hemoglobin, mean change from baseline: 0.64 g/L
  Platelet Count, mean change from baseline: -1.73e+10 L⁻¹
Visit 8
  Platelet count, greatest mean decrease from baseline excluding Visit 9: 1.85e+10 L⁻¹
Visit 8, Safety population
  ALT, mean change from baseline: −3.42 U/L
  AST, mean change from baseline: −1.66 U/L
  Hemoglobin, mean change from baseline: -0.33 g/L
  Platelet Count, mean change from baseline: -1.854e+10 L⁻¹
[2]
  ALT, mean change from baseline: −1.25 U/L
  AST, mean change from baseline: 0.25 U/L
  Hemoglobin, mean change from baseline: -4.13 g/L
  Platelet Count, mean change from baseline: -3.288e+10 L⁻¹
[3]
  Hemoglobin, greatest mean change from baseline: -4.1 g/L
  Platelet count, greatest mean decrease from baseline: 3.29e+10 L⁻¹
[4]
  ALT or AST >3 × ULN and Total Bilirubin >2 × ULN, % patients: (0.0) %
  ALT or AST >3 × ULN and Total Bilirubin >2 × ULN, n patients: 1
  ALT or AST >3 × ULN, % patients: (1.5) %
  ALT or AST >3 × ULN, Total Bilirubin >2 × ULN, and ALP ≤2 × ULN, % patients: (0.0) %
  ALT or AST >3 × ULN, Total Bilirubin >2 × ULN, and ALP ≤2 × ULN, n patients: 1
  ALT or AST >3 × ULN, n patients: 61
  PCS High >3 × ULN (AST) and >2 × ULN (Total Bilirubin), % patients: (0.0) %
  PCS High >3 × ULN (AST) and >2 × ULN (Total Bilirubin), n patients: 1
  Treatment-emergent AST >3 × ULN, % patients: (0.9) %
  Treatment-emergent AST >3 × ULN, n patients: 36
  Treatment-emergent AST >ULN, % patients: (23.4) %
  Treatment-emergent AST >ULN, n patients: 932
[5]
  PCS High >3 × ULN (ALT) and >2 × ULN (Total Bilirubin), % patients: (0.0) %
  PCS High >3 × ULN (ALT) and >2 × ULN (Total Bilirubin), n patients: 1
  Treatment-emergent ALP >2 × ULN, % patients: (0.5) %
  Treatment-emergent ALP >2 × ULN, n patients: 18
  Treatment-emergent ALP >ULN, % patients: (7.7) %
  Treatment-emergent ALP >ULN, n patients: 308
  Treatment-emergent ALT >3 × ULN, % patients: (1.1) %
  Treatment-emergent ALT >3 × ULN, n patients: 44
  Treatment-emergent ALT >ULN, % patients: (32.9) %
  Treatment-emergent ALT >ULN, n patients: 1308
  Treatment-emergent Total Bilirubin >2 × ULN, % patients: (0.5) %
  Treatment-emergent Total Bilirubin >2 × ULN, n patients: 21
  Treatment-emergent Total Bilirubin >ULN, % patients: (7.5) %
  Treatment-emergent Total Bilirubin >ULN, n patients: 297
Final visit
  Hemoglobin, greatest mean change from baseline excluding Visit 9: -1.1 g/L
